Data taken from the supplement of paper PMC13207355.
Structures can show the parent of a compound that is named as a salt.

What was measured:
Conditions in all cases: exposure time: 72 h
E13 [1] = patient-derived glioblastoma stem cells of classical subtype; experiment: surviving fraction (nuclei count normalised to DMSO); higher = more cells surviving (less toxic)
E21 [2] = patient-derived glioblastoma stem cells of mesenchymal subtype; experiment: as above
E28 [3] = patient-derived glioblastoma stem cells of classical subtype; experiment: as above
E31 [4] = patient-derived glioblastoma stem cells of proneural subtype; experiment: as above
E34 [5] = patient-derived glioblastoma stem cells of proneural subtype; experiment: as above
E57 [6] = patient-derived glioblastoma stem cells of mesenchymal subtype; experiment: as above
FT3469 [7] = normal neural stem cell line; experiment: as above
E13 [8] = experiment: phenotypic distance (Euclidean, principal components) from DMSO controls (arbitrary units); higher = stronger morphological change
E21 [9] = experiment: as above
E28 [10] = experiment: as above
E31 [11] = experiment: as above
E34 [12] = experiment: as above
E57 [13] = experiment: as above
FT3469 [14] = experiment: as above
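For phenotypic distance (Euclidean, principal components) from DMSO controls in this document: cell Painting imaging in 384-well plates, CellProfiler features reduced to at least 20 principal components, Euclidean distance versus same-plate DMSO vehicle wells (0.1% v/v), median over six images per well.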
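For surviving fraction (nuclei count normalised to DMSO) in this document: nuclei counted by high-content imaging of Hoechst-stained cells in laminin-coated 384-well plates, relative to 0.1% DMSO vehicle wells, with staurosporine as cell-death control.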

C=C[C@H]1CN2CC[C@H]1C[C@@H]2[C@@H](O)c1ccnc2ccc(OC)cc12 [Quinidine hydrochloride monohydrate]
Conditions | phenotypic distance | surviving fraction
E13 [1], 4.1 nM | – | 0.965
E13 [1], 12.3 nM | – | 1.04
E13 [1], 37 nM | – | 1.06
E13 [1], 111.1 nM | – | 1.03
E13 [1], 333.3 nM | – | 0.954
E13 [1], 1000 nM | – | 1.09
E13 [1], 3000 nM | – | 1.01
E13 [8], 4.1 nM | 2.06 | –
E13 [8], 12.3 nM | 2.74 | –
E13 [8], 37 nM | 0.288 | –
E13 [8], 111.1 nM | 0.43 | –
E13 [8], 333.3 nM | 3.29 | –
E13 [8], 1000 nM | 0.415 | –
E13 [8], 3000 nM | 0.498 | –
E21 [2], 4.1 nM | – | 0.736
E21 [2], 12.3 nM | – | 1.03
E21 [2], 37 nM | – | 0.863
E21 [2], 111.1 nM | – | 1.03
E21 [2], 333.3 nM | – | 1
E21 [2], 1000 nM | – | 0.964
E21 [2], 3000 nM | – | 0.865
E21 [9], 4.1 nM | 1.42 | –
E21 [9], 12.3 nM | 0.785 | –
E21 [9], 37 nM | 0.783 | –
E21 [9], 111.1 nM | 0.852 | –
E21 [9], 333.3 nM | 0.814 | –
E21 [9], 1000 nM | 0.565 | –
E21 [9], 3000 nM | 1.06 | –
E28 [3], 4.1 nM | – | 1.12
E28 [3], 12.3 nM | – | 0.991
E28 [3], 37 nM | – | 1.14
E28 [3], 111.1 nM | – | 1.02
E28 [3], 333.3 nM | – | 1.15
E28 [3], 1000 nM | – | 1.07
E28 [3], 3000 nM | – | 1.2
E28 [10], 4.1 nM | 0.692 | –
E28 [10], 12.3 nM | 0.479 | –
E28 [10], 37 nM | 0.471 | –
E28 [10], 111.1 nM | 0.837 | –
E28 [10], 333.3 nM | 0.667 | –
E28 [10], 1000 nM | 0.843 | –
E28 [10], 3000 nM | 0.738 | –
E31 [4], 4.1 nM | – | 1.04
E31 [4], 12.3 nM | – | 0.915
E31 [4], 37 nM | – | 0.941
E31 [4], 111.1 nM | – | 0.942
E31 [4], 333.3 nM | – | 1.04
E31 [4], 1000 nM | – | 0.944
E31 [4], 3000 nM | – | 1.09
E31 [11], 4.1 nM | 1.52 | –
E31 [11], 12.3 nM | 0.739 | –
E31 [11], 37 nM | 0.504 | –
E31 [11], 111.1 nM | 0.428 | –
E31 [11], 333.3 nM | 0.941 | –
E31 [11], 1000 nM | 0.478 | –
E31 [11], 3000 nM | 0.676 | –
E34 [5], 4.1 nM | – | 1.06
E34 [5], 12.3 nM | – | 0.922
E34 [5], 37 nM | – | 0.904
E34 [5], 111.1 nM | – | 0.914
E34 [5], 333.3 nM | – | 1.02
E34 [5], 1000 nM | – | 0.91
E34 [5], 3000 nM | – | 0.984
E34 [12], 4.1 nM | 1.26 | –
E34 [12], 12.3 nM | 0.809 | –
E34 [12], 37 nM | 1.05 | –
E34 [12], 111.1 nM | 0.841 | –
E34 [12], 333.3 nM | 0.778 | –
E34 [12], 1000 nM | 0.516 | –
E34 [12], 3000 nM | 0.396 | –
E57 [6], 4.1 nM | – | 1.05
E57 [6], 12.3 nM | – | 1.09
E57 [6], 37 nM | – | 1.04
E57 [6], 111.1 nM | – | 1.07
E57 [6], 333.3 nM | – | 1.05
E57 [6], 1000 nM | – | 1.09
E57 [6], 3000 nM | – | 1.12
E57 [13], 4.1 nM | 0.629 | –
E57 [13], 12.3 nM | 0.932 | –
E57 [13], 37 nM | 0.42 | –
E57 [13], 111.1 nM | 5.48 | –
E57 [13], 333.3 nM | 0.376 | –
E57 [13], 1000 nM | 0.318 | –
E57 [13], 3000 nM | 0.734 | –
FT3469 [7], 4.1 nM | – | 0.974
FT3469 [7], 12.3 nM | – | 0.955
FT3469 [7], 37 nM | – | 1.03
FT3469 [7], 111.1 nM | – | 1.14
FT3469 [7], 333.3 nM | – | 1.03
FT3469 [7], 1000 nM | – | 0.998
FT3469 [7], 3000 nM | – | 0.957
FT3469 [14], 4.1 nM | 1.14 | –
FT3469 [14], 12.3 nM | 0.621 | –
FT3469 [14], 37 nM | 0.809 | –
FT3469 [14], 111.1 nM | 0.891 | –
FT3469 [14], 333.3 nM | 0.965 | –
FT3469 [14], 1000 nM | 0.266 | –
FT3469 [14], 3000 nM | 0.69 | –

CC1=C(/C=C/C(C)=C/C=C/C(C)=C/C(=O)Nc2ccc(O)cc2)C(C)(C)CCC1 [Retinoic acid p-hydroxyanilide]
Conditions | phenotypic distance | surviving fraction
E13 [1], 4.1 nM | – | 0.963
E13 [1], 12.3 nM | – | 0.967
E13 [1], 37 nM | – | 1.09
E13 [1], 333.3 nM | – | 1.07
E13 [1], 1000 nM | – | 0.734
E13 [1], 3000 nM | – | 0.00947
E13 [8], 4.1 nM | 0.545 | –
E13 [8], 12.3 nM | 0.333 | –
E13 [8], 37 nM | 0.641 | –
E13 [8], 333.3 nM | 3.32 | –
E13 [8], 1000 nM | 4.24 | –
E13 [8], 3000 nM | 9.85 | –
E21 [2], 4.1 nM | – | 1.05
E21 [2], 12.3 nM | – | 0.947
E21 [2], 37 nM | – | 0.953
E21 [2], 333.3 nM | – | 1.02
E21 [2], 1000 nM | – | 0.781
E21 [2], 3000 nM | – | 0.00532
E21 [9], 4.1 nM | 0.779 | –
E21 [9], 12.3 nM | 0.993 | –
E21 [9], 37 nM | 0.775 | –
E21 [9], 333.3 nM | 1.03 | –
E21 [9], 1000 nM | 2.42 | –
E21 [9], 3000 nM | 10.8 | –
E28 [3], 4.1 nM | – | 1.11
E28 [3], 12.3 nM | – | 0.963
E28 [3], 37 nM | – | 1.13
E28 [3], 333.3 nM | – | 1.08
E28 [3], 1000 nM | – | 0.931
E28 [3], 3000 nM | – | 0.00413
E28 [10], 4.1 nM | 0.643 | –
E28 [10], 12.3 nM | 0.734 | –
E28 [10], 37 nM | 0.511 | –
E28 [10], 333.3 nM | 0.842 | –
E28 [10], 1000 nM | 1.73 | –
E28 [10], 3000 nM | 19.3 | –
E31 [4], 4.1 nM | – | 0.912
E31 [4], 12.3 nM | – | 0.905
E31 [4], 37 nM | – | 0.993
E31 [4], 333.3 nM | – | 1.05
E31 [4], 1000 nM | – | 0.927
E31 [4], 3000 nM | – | 0.00743
E31 [11], 4.1 nM | 0.825 | –
E31 [11], 12.3 nM | 0.482 | –
E31 [11], 37 nM | 0.638 | –
E31 [11], 333.3 nM | 1.69 | –
E31 [11], 1000 nM | 2.86 | –
E31 [11], 3000 nM | 18.6 | –
E34 [5], 4.1 nM | – | 1.28
E34 [5], 12.3 nM | – | 1.05
E34 [5], 37 nM | – | 0.937
E34 [5], 333.3 nM | – | 1.08
E34 [5], 1000 nM | – | 0.967
E34 [5], 3000 nM | – | 0.00196
E34 [12], 4.1 nM | 0.884 | –
E34 [12], 12.3 nM | 0.569 | –
E34 [12], 37 nM | 0.817 | –
E34 [12], 333.3 nM | 1.4 | –
E34 [12], 1000 nM | 2.38 | –
E34 [12], 3000 nM | 19.6 | –
E57 [6], 4.1 nM | – | 1.12
E57 [6], 12.3 nM | – | 1.08
E57 [6], 37 nM | – | 1.05
E57 [6], 333.3 nM | – | 1.06
E57 [6], 1000 nM | – | 1.03
E57 [6], 3000 nM | – | 0.00394
E57 [13], 4.1 nM | 0.591 | –
E57 [13], 12.3 nM | 0.726 | –
E57 [13], 37 nM | 0.599 | –
E57 [13], 333.3 nM | 0.631 | –
E57 [13], 1000 nM | 1.92 | –
E57 [13], 3000 nM | 15.3 | –
FT3469 [7], 4.1 nM | – | 1
FT3469 [7], 12.3 nM | – | 1.04
FT3469 [7], 37 nM | – | 1.04
FT3469 [7], 333.3 nM | – | 0.89
FT3469 [7], 1000 nM | – | 0.901
FT3469 [7], 3000 nM | – | 0.0056
FT3469 [14], 4.1 nM | 0.589 | –
FT3469 [14], 12.3 nM | 0.564 | –
FT3469 [14], 37 nM | 0.708 | –
FT3469 [14], 333.3 nM | 1.89 | –
FT3469 [14], 1000 nM | 2.61 | –
FT3469 [14], 3000 nM | 17.7 | –
